# Source: ChEMBL document CHEMBL5543084, “Development of cannabidiol derivatives as potent broad-spectrum antibacterial agents with membrane-disruptive mechanism” (Eur J Med Chem, 2024)
# The source made the active and inactive calls. The calls are words filed in the database; no cut-off is given here.
# What was measured:
# Cell membrane [1] = test: Induction of cytoplasmic membrane permeabilization in methicilin-resistant Staphylococcus aureus […] assessed as disruption of cell membrane integrity by measuring increase in fluorescence intensity at 1 to 8 times of MIC concentration measured upto 60 mins by SYTOX green dye based fluorescence analysis; format: cell membranes; conditions: NCTC 10442
# Staphylococcus aureus [2] = test: Antibacterial activity against methicillin-resistant Staphylococcus aureus NCTC 10442 assessed as inhibition of bacterial growth incubated for 24 hrs in presence of 140 mM Na+ by broth dilution method; format: functional
# Staphylococcus aureus [3] = test: Bactericidal activity against methicillin-resistant Staphylococcus aureus NCTC 10442 assessed as up-regulation of molecular functions related gene expression by measuring glutamate-ammonia ligase activity (GO:0004356) at 4 times of MIC concentration measured after 90 mins incubation by RNA sequencing (RNA-seq) study; format: functional, organism-based
# Staphylococcus aureus [4] = test: Antibacterial activity against methicillin-resistant Staphylococcus aureus NCTC 10442 assessed as inhibition of bacterial growth incubated for 24 hrs in presence of 19 uM Zn2+ by broth dilution method; format: functional
# [5] = Toxicity in C57BL6 mouse assessed as signs of toxicity treated in eyeballs 4 times in a day for 3 consecutive days; conditions: in vivo, topical_or_ocular
# Klebsiella pneumoniae [6] = test: Antibacterial activity against Klebsiella pneumoniae ATCC 10031 assessed as inhibition of bacterial growth incubated for 24 hrs in presence of 4.5 mM K+ by broth dilution method; format: functional
# Escherichia coli [7] = test: Antibacterial activity against Escherichia coli ATCC 25922 assessed as inhibition of bacterial growth incubated for 24 hrs in presence of 4.5 mM K+ by broth dilution method; format: functional
# Escherichia coli [8] = test: Bactericidal activity against Escherichia coli ATCC 25922 assessed as down-regulation of intracellular sequestering of iron ion (GO:0006880) at 4 times of MIC concentration measured after 90 mins incubation by RNA sequencing (RNA-seq) study; format: functional, organism-based
# Staphylococcus aureus [9] = test: Bactericidal activity against methicillin-resistant Staphylococcus aureus NCTC 10442 assessed as up regulation of alanine/aspartate and glutamate metabolism gene expression at 4 times of MIC concentration measured after 90 mins incubation by RNA sequencing (RNA-seq) study; format: functional, organism-based
# [10] = Cytotoxicity against human HepG2 cells assessed as viable cells at 25 microg/ml incubated for 24 hrs by CCK-8 assay; format: toxicity, cell-based; conditions: at 25 µg/mL, read-out: Activity
# Staphylococcus aureus [11] = test: Bactericidal activity against methicillin-resistant Staphylococcus aureus NCTC 10442 assessed as down-regulation of biological processes related gene expression by measuring UMP biosynthetic process (GO:0044,205) at 4 times of MIC concentration measured after 90 mins incubation by RNA sequencing (RNA-seq) study; format: functional, organism-based
# Staphylococcus aureus [12] = test: Antibacterial activity against methicillin-resistant Staphylococcus aureus NCTC 10442 assessed as inhibition of bacterial growth incubated for 24 hrs in presence of 20 uM Fe3+ by broth dilution method; format: functional
# [13] = Cytotoxicity against human HepG2 cells assessed as viable cells at 6.25 microg/ml incubated for 24 hrs by CCK-8 assay; format: toxicity, cell-based; conditions: at 6.25 µg/mL, read-out: Activity
# Escherichia coli [14] = test: Bactericidal activity against Escherichia coli ATCC 25922 assessed as change in xenobiotics biodegradation and metabolism gene expression at 4 times of MIC concentration measured after 90 mins incubation by RNA sequencing (RNA-seq) study; format: functional, organism-based
# Lipopolysaccharide (LPS) [15] = test: Displacement of BODIPY-TR-cadaverine from Escherichia coli lipopolysaccharide (LPS) assessed as increase in fluorescence intensity at 4 times MIC measured after 30 mins by fluorescence spectrophotometric analysis; format: subcellular
# [16] = Cytotoxicity against mouse fibroblast NCTC clone 929 cells assessed as viable cells at 25 microg/ml incubated for 24 hrs by CCK-8 assay; format: toxicity, cell-based; conditions: NCTC clone 929 (L929) fibroblast cells, at 25 µg/mL, read-out: Activity
# Klebsiella pneumoniae [17] = test: Antibacterial activity against Klebsiella pneumoniae ATCC 14581 assessed as inhibition of bacterial growth incubated for 24 hrs by broth dilution method; format: functional
# [18] = Cytotoxicity against mouse fibroblast NCTC clone 929 cells assessed as viable cells at 6.25 microg/ml incubated for 24 hrs by CCK-8 assay; format: toxicity, cell-based; conditions: NCTC clone 929 (L929) fibroblast cells, at 6.25 µg/mL, read-out: Activity
# Cell membrane [19] = test: Induction of outer membrane permeabilization in Pseudomonas aeruginosa ATCC 9027 assessed as increase in fluorescence intensity at 1 to 8 times MIC concentration by NPN-dye based fluorescence analysis; format: cell membranes
# Klebsiella pneumoniae [20] = test: Antibacterial activity against Klebsiella pneumoniae ATCC 10031 assessed as inhibition of bacterial growth incubated for 24 hrs in presence of 20 uM Fe2+ by broth dilution method; format: functional
# Escherichia coli [21] = test: Antibacterial activity against Escherichia coli ATCC 25922 assessed as inhibition of bacterial growth incubated for 24 hrs in presence of 20 uM Fe2+ by broth dilution method; format: functional
# Lipopolysaccharide (LPS) [22] = test: Displacement of BODIPY-TR-cadaverine from Escherichia coli lipopolysaccharide (LPS) assessed as increase in fluorescence intensity by fluorescence spectrophotometric analysis; format: subcellular
# Pseudomonas aeruginosa = test: In vivo antibacterial activity against Pseudomonas aeruginosa ATCC 9027 infected C57BL6 mouse corneal infection model assessed as reduction in bacterial burden at 3 mg/ml, TOP 4 times in a day for 2 consecutive days; format: functional; conditions: time 2 day
# Staphylococcus aureus [23] = test: Antibacterial activity against methicillin-resistant Staphylococcus aureus NCTC 10442 assessed as inhibition of bacterial growth incubated for 24 hrs by broth dilution method; format: functional
# Staphylococcus aureus [24] = test: Bactericidal activity against methicillin-resistant Staphylococcus aureus NCTC 10442 assessed as bacterial killing at 8 time of MIC concentration incubated for 1 hr by time-kill assay relative to control; format: functional
# Escherichia coli [25] = test: Bactericidal activity against Escherichia coli ATCC 25922 assessed as change in cell death associated gene expression by measuring down-regulation of CDPglycerol glycero-phosphotransferase (D1792_RS11350) gene expression at 4 times of MIC concentration measured after 90 mins incubation by RNA sequencing (RNA-seq) study; format: functional, organism-based
# Staphylococcus aureus [26] = test: Antibacterial activity against methicillin-resistant Staphylococcus aureus N315 assessed as inhibition of bacterial growth incubated for 24 hrs by broth dilution method; format: functional
# Cell membrane [27] = test: Induction of cytoplasmic membrane permeabilization in Escherichia coli ATCC 25922 assessed as disruption of cell membrane integrity measured upto 60 mins by measuring increase in fluorescence intensity at 1 to 8 times of MIC concentration by SYTOX green dye based fluorescence analysis; format: cell membranes
# Klebsiella pneumoniae [28] = test: Antibacterial activity against Klebsiella pneumoniae ATCC 10031 assessed as inhibition of bacterial growth incubated for 24 hrs in presence of 2.5 mM Ca2+ by broth dilution method; format: functional
# Escherichia coli [29] = test: Bactericidal activity against Escherichia coli ATCC 25922 assessed as change in cell death associated gene expression by measuring down-regulation of LPS export ABC transporter periplasmic-encoding gene (D1792_RS11370) gene expression at 4 times of MIC concentration measured after 90 mins incubation by RNA sequencing (RNA-seq) study; format: functional, organism-based
# Escherichia coli [30] = test: Bactericidal activity against Escherichia coli ATCC 25922 assessed as down-regulation down of ferroxidase activity (GO:0004322) at 4 times of MIC concentration measured after 90 mins incubation by RNA sequencing (RNA-seq) study; format: functional, organism-based
smiles,measurement,setting,value
C=C(C)[C@@H]1CCC(C)=C[C@H]1c1c(OCCCNC(=N)N)cc(CCCCC)cc1OCCCNC(=N)N,Activity,Cell membrane [1],Active
same,MIC,Staphylococcus aureus [2],0.39 µg/mL
same,Activity,Staphylococcus aureus [3],Active
same,MIC,Staphylococcus aureus [4],0.39 µg/mL
same,Activity,[5],Non-Toxic
same,MIC,Klebsiella pneumoniae [6],6.25 µg/mL
same,MIC,Escherichia coli [7],1.56 µg/mL
same,Activity,Escherichia coli [8],Active
same,Activity,Staphylococcus aureus [9],Active
same,"viability at 24 h, 25 microg/ml",[10],92.9%
same,Activity,Staphylococcus aureus [11],Active
same,MIC,Staphylococcus aureus [12],0.39 µg/mL
same,"viability at 24 h, 6.25 microg/ml",[13],91.3%
same,Activity,Escherichia coli [14],Active
same,Activity,Lipopolysaccharide (LPS) [15],76.5%
same,"viability at 24 h, 25 microg/ml",[16],68.7%
same,MIC,Klebsiella pneumoniae [17],1.56 µg/mL
same,"viability at 24 h, 6.25 microg/ml",[18],86.2%
same,Activity,Cell membrane [19],Dose-Dependent Effect
same,MIC,Klebsiella pneumoniae [20],3.12 µg/mL
same,MIC,Escherichia coli [21],1.56 µg/mL
same,Activity,Lipopolysaccharide (LPS) [22],Dose-Dependent Effect
same,Activity,Pseudomonas aeruginosa,6.41 log10FFU/ml
same,MIC,Staphylococcus aureus [23],0.78 µg/mL
same,inhibition (INH),Staphylococcus aureus [24],100%
same,Activity,Escherichia coli [25],Active
same,MIC,Staphylococcus aureus [26],0.39 µg/mL
same,Activity,Cell membrane [27],Active
same,MIC,Klebsiella pneumoniae [28],6.25 µg/mL
same,Activity,Escherichia coli [29],Active
same,Activity,Escherichia coli [30],Active
